Results published in ChEMBL document CHEMBL4811312, “SAR towards indoline and 3-azaindoline classes of IDO1 inhibitors” (Bioorg Med Chem Lett, 2021).

Tests used:
[1] = target: T1, Indoleamine 2,3-dioxygenase 1 (Homo sapiens, UniProt P14902); assay: Inhibition of human IDO1 in human Hela cells at 10 uM relative to control; format: cell-based
Target sequence in this assay (P14902 whole entry, looked up): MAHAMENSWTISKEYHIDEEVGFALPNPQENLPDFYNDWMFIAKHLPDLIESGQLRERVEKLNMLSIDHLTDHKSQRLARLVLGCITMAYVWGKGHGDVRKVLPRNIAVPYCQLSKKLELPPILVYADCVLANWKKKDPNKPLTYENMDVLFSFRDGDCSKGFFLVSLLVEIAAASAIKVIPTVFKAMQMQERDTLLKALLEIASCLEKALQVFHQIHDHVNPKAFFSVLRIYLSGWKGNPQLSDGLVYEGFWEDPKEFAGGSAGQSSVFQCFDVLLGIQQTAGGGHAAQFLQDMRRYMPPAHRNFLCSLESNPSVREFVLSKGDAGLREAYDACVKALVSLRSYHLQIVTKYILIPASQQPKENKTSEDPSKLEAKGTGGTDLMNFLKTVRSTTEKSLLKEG

[2] = target: T1, Indoleamine 2,3-dioxygenase 1; assay: Inhibition of human IDO1 in human Hela cells; format: cell-based
Target sequence in this assay (P14902 whole entry): as the sequence (P14902 whole entry, looked up) above

[3] = target: T1, Indoleamine 2,3-dioxygenase 1; assay: Inhibition of human IDO1 by human whole blood assay; format: tissue-based
Target sequence in this assay (P14902 whole entry): as the sequence (P14902 whole entry, looked up) above

[4] = target: T1, Indoleamine 2,3-dioxygenase 1; assay: Inhibition of human IDO1 assessed as unbound compound concentration by human whole blood assay; format: tissue-based
Target sequence in this assay (P14902 whole entry): as the sequence (P14902 whole entry, looked up) above

[5] = Unbound clearance in Wistar Han rats at 0.05 mg/kg, iv; format: ADME, organism-based; conditions: rat, in vivo
[6] = Clearance in Wistar Han rats at 0.05 mg/kg, iv; format: ADME, organism-based; conditions: rat, in vivo
[7] = Mean residence time in Wistar Han rat at 0.5 mg/kg, iv; format: ADME, organism-based; conditions: in vivo
[8] = target: T1, Indoleamine 2,3-dioxygenase 1; assay: Inhibition of human IDO1 in HEK293 cells at 10 uM relative to control; format: cell-based
Target sequence in this assay (P14902 whole entry, looked up): as above

[9] = Unbound clearance in Beagle dog at 0.05 mg/kg, iv; format: ADME, organism-based, Canis lupus familiaris; conditions: in vivo
[10] = Clearance in Beagle dog at 0.05 mg/kg, iv; format: ADME, organism-based, Canis lupus familiaris; conditions: in vivo
[11] = Mean residence time in Beagle dog at 0.5 mg/kg, iv; format: ADME, organism-based, Canis lupus familiaris; conditions: in vivo

In the case of `O=C(NCc1ccc2c(c1)CCN2C(=O)c1cccc(Cl)c1)c1ccc(Cl)cc1`, the inhibition [1] is reported as 90% and the IC50 [2] is reported as 90 nM.

`O=C(NC1(c2ccc3c(n2)C2(CC2)CN3C(=O)OC2CC2)CC1)c1ccc(F)cc1` gave an IC50 [2] of 12 nM.

Molecule `O=C(C1CC1)N1CCc2nc(C3(C(=O)Nc4ccc(F)cc4)CCC3)ccc21` has an IC50 [2] of 8 nM, an IC50 [3] of 330 nM and an IC50 [4] of 29 nM. The CL free [5] was 668 mL/min/kg, the clearance [6] was 60 mL/min/kg and the MRT [7] was 1.2 h.

`CCC(=O)NCc1ccc2c(c1)CCN2C(=O)c1ccccc1` gave an inhibition [8] of 41%.

In the case of `Cc1nccc(N2CCc3nc(C4(NC(=O)c5ccc(Cl)cc5)CCC4)ccc32)n1`, the IC50 [2] is reported as 46 nM.

For `COC(=O)N1c2ccc(C3(NC(=O)c4ccc(F)cc4)CC3)cc2[C@H]2CC[C@H]21`, the IC50 [2] was 2.8 nM, the IC50 [3] was 300 nM and the IC50 [4] was 4.1 nM. It also gave a CL free [5] of 2318 mL/min/kg, a clearance [6] of 32 mL/min/kg and an MRT [7] of 1 h.

`O=C(NC1(c2ccc3c(n2)CCN3c2ccnc(C(F)(F)F)n2)CCC1)c1ccc(Cl)cc1` gave an IC50 [2] of 93 nM and an IC50 [3] of 240 nM.

Molecule `COC(=O)N1c2ccc(C3(NC(=O)c4ccc(F)cc4)CC3)cc2[C@@H]2CC[C@@H]21` has an IC50 [2] of 5.6 nM, a CL free [5] of 2899 mL/min/kg and a clearance [6] of 29 mL/min/kg. For the same molecule, the MRT [7] was 0.8 h.

For `CCC(=O)N1CCc2cc(CNC(=O)c3ccccc3)ccc21`, the inhibition [8] was 87%.

In the case of `Cc1nccc(N2c3ccc(C4(NC(=O)c5ccc(F)cc5)CC4)cc3[C@@H]3C[C@@H]32)n1`, the IC50 [2] is reported as 8.2 nM.

In the case of `O=C(Nc1ccc(F)cc1)C1(c2ccc3c(c2)CCN3c2ccccn2)CCC1`, the IC50 [2] is reported as 3.1 nM.

`O=C(OC1CC1)N1CCc2nc(C3(C(=O)Nc4ccc(F)cc4)CCC3)ccc21` showed an IC50 [2] of 2.7 nM, a CL free [5] of 1691 mL/min/kg and a clearance [6] of 61 mL/min/kg. It also gave an MRT [7] of 2.7 h.

With `O=C(NC1(c2ccc3c(n2)CCN3C(=O)OC2CC2)CCC1)c1ccc(Cl)cc1` the IC50 [2] was 4.5 nM, the IC50 [3] was 63 nM and the IC50 [4] was 0.63 nM. The CL free [5] was 2049 mL/min/kg, the clearance [6] was 20 mL/min/kg and the MRT [7] was 3.2 h.

`CC(C)CC(=O)N1CCc2cc(CNC(=O)c3cccnc3)ccc21` gave an inhibition [8] of 86%.

Molecule `CCC(=O)N1CCc2cc(CNC(=O)c3cccs3)ccc21` has an inhibition [8] of 89%.

`O=C(Nc1ccc(F)cc1)C1(c2ccc3c(n2)CCN3c2ccnc(C(F)(F)F)n2)CCC1` gave an IC50 [2] of 127 nM.

`O=C(Nc1ccc(Cl)cc1)C1(c2ccc3c(c2)CCN3c2ccccn2)CCC1` showed an IC50 [2] of 1.6 nM and an IC50 [3] of 640 nM.

For `CCCC(=O)NCc1ccc2c(c1)CCN2C(=O)CC(C)C`, the inhibition [8] was 64%.

With `COCCOC(=O)N1CCc2nc(C3(NC(=O)c4ccc(Cl)cc4)CCC3)ccc21` the IC50 [2] was 6.9 nM.

For `CC(C)CC(=O)N1CCc2cc(CNC(=O)c3cccs3)ccc21`, the inhibition [8] was 100%.

Work on `Cc1nccc(N2c3ccc(C4(NC(=O)c5ccc(F)cc5)CC4)cc3[C@H]3CC[C@H]32)n1` yielded an IC50 [2] of 3.8 nM and an IC50 [3] of 64 nM.

In the case of `Cc1nccc(N2CC3(CC3)c3nc(C4(NC(=O)c5ccc(F)cc5)CC4)ccc32)n1`, the IC50 [2] is reported as 34 nM, the CL free [5] is reported as 1176 mL/min/kg and the clearance [6] is reported as 7.3 mL/min/kg. It also gave an MRT [7] of 3.4 h.

`CC(C)C(=O)N1CCc2cc(CNC(=O)c3ccc(Cl)cc3)ccc21` gave an inhibition [8] of 92%.

Work on `CC(C)C(=O)N1CCc2cc(CNC(=O)c3ccco3)ccc21` yielded an inhibition [1] of 92% and an IC50 [2] of 92 nM.

Molecule `O=C(OC1CC1)N1CCc2nc(C3(C(=O)Nc4ccc(Cl)cc4)CCC3)ccc21` has an IC50 [2] of 2 nM and an IC50 [3] of 90 nM.

`CC(=O)N1CCc2cc(CNC(=O)c3cccs3)ccc21` gave an inhibition [8] of 72%.

Work on `CCC(=O)N1CCc2cc(CNC(=O)c3ccnn3C)ccc21` yielded an inhibition [8] of 14%.

Molecule `Cc1nccc(N2CCc3cc(C4(C(=O)Nc5ccc(F)cc5)CCC4)ccc32)n1` has an IC50 [2] of 5.2 nM and an IC50 [3] of 430 nM.

`Cc1nccc(N2CCc3nc(C4(C(=O)Nc5ccc(Cl)cc5)CCC4)ccc32)n1` gave an IC50 [2] of 12.5 nM.

With `Cc1nccc(N2c3ccc(C4(NC(=O)c5ccc(F)cc5)CC4)cc3[C@@H]3CC[C@@H]32)n1` the IC50 [2] was 5 nM and the IC50 [3] was 66 nM.

`CCC(=O)N1CCc2cc(CNC(=O)c3cccc(Cl)c3)ccc21` gave an inhibition [8] of 77%.

In the case of `CCC(=O)N1CCc2cc(CNC(=O)c3cccc(F)c3)ccc21`, the inhibition [8] is reported as 82%.

In the case of `CC(C)CC(=O)N1CCc2cc(CNC(=O)c3ccco3)ccc21`, the inhibition [8] is reported as 100%.

Molecule `CC(C)C(=O)N1CCc2cc(CNC(=O)c3cccs3)ccc21` has an inhibition [8] of 100%.

`O=C(Nc1ccc(Cl)cc1)C1(c2ccc3c(n2)CCN3c2ccccn2)CCC1` showed an IC50 [2] of 2.3 nM, an IC50 [3] of 340 nM and an IC50 [4] of 0.34 nM. The CL free [5] was 35929 mL/min/kg, the clearance [6] was 53 mL/min/kg and the MRT [7] was 2.2 h.

`CC(C)C(=O)N1CCc2cc(CNC(=O)c3ccc(F)cc3)ccc21` showed an inhibition [8] of 88%.

Molecule `Cc1nccc(N2CCc3nc(C4(C(=O)Nc5ccc(F)cc5)CCC4)ccc32)n1` has an IC50 [2] of 21 nM and an IC50 [3] of 430 nM.

Work on `CC(C)CC(=O)N1CCc2cc(CNC(=O)C3CC3)ccc21` yielded an inhibition [8] of 35%.

Work on `O=C(OC1CC1)N1CCc2cc(C3(C(=O)Nc4ccc(F)cc4)CCC3)ccc21` yielded an IC50 [2] of 1.4 nM, an IC50 [4] of 0.45 nM and a CL free [5] of 7720 mL/min/kg. The clearance [6] was 87 mL/min/kg and the MRT [7] was 1.8 h.

With `COCC(=O)NCc1ccc2c(c1)CCN2C(=O)CC(C)C` the inhibition [8] was 20%.

Molecule `O=C(c1cccc(Cl)c1)N1CCc2nc(C3(C(=O)Nc4ccc(F)cc4)CCC3)ccc21` has an IC50 [4] of 0.84 nM.

Molecule `CC(C)C(=O)N1CCc2cc(CNC(=O)c3ccccc3)ccc21` has an inhibition [8] of 100%.

In the case of `CC(C)NC(=O)NCc1ccc2c(c1)CCN2C(=O)c1ccccc1`, the inhibition [8] is reported as 45%.

Molecule `O=C(NC1(c2ccc3c(n2)CCN3C(=O)OC2CC2)CC1)c1ccc(Cl)cc1` has an IC50 [2] of 4.1 nM, an IC50 [3] of 390 nM and an IC50 [4] of 11 nM. It also gave a CL free [5] of 174 mL/min/kg, a clearance [6] of 4.8 mL/min/kg and a CL free [9] of 4800 mL/min/kg. The clearance [10] was 14 mL/min/kg, the MRT [7] was 2.9 h and the MRT [11] was 4.9 h.

Molecule `Cc1nccc(N2c3ccc(C4(NC(=O)c5ccc(F)cc5)CC4)cc3[C@H]3C[C@H]32)n1` has an IC50 [2] of 2.9 nM, an IC50 [3] of 180 nM and a clearance [6] of 3.3 mL/min/kg. For the same molecule, the MRT [7] was 3.6 h.

For `CCC(=O)N1CCc2cc(CNC(=O)c3ccc(F)cc3)ccc21`, the inhibition [8] was 96%.
